Assay results from US5712417A, “Inhibitors of retroviral proteases” (Abbott Laboratories, priority 1989, dated 1998).
Structures can show the parent of a compound that is named as a salt.

Target: T1, HIV protease (Human immunodeficiency virus type 1 group M subtype B, UniProt P04585)
T1 construct: HIV protease consists of 99 amino acids and is evidently split off by itself from the pol polyprotein
Assay: Inhibition of HIV protease (cleavage of H-Ser-Phe-Asn-Phe-Opr-Gln-Ile-OH, HPLC)
Type: biochemical
Details: not given
Description: The compounds of the formula (I) according to the invention have enzyme-inhibiting properties. In particular, they inhibit the action of retroviral aspartyl proteases, such as that of HIV protease. Their enzyme-inhibitory action, which is in the milli- to subnanomolar range, can be determined as follows.
The heptapeptide: H-Ser-Phe-Asn-Phe-Pro-Gln-Ile-OH (P. L. Darke et al., Biophys. Res. Commun. 156 (1988) 297-303), inter alia, has hitherto been used as the substrate of HIV protease. HIV protease cleaves the substrate here between the second Phe and Pro.
General instructions for testing inhibitors of HIV proteases: a) Preparation of the substrate solution:
2 mg of H-Ser-Phe-Asn-Phe-Opr-Gln-Ile-OH (H-Opr-OH=5-oxaproline) are dissolved in 1 ml of MGTE15 buffer (use of ultrasound if necessary) and the solution is then filtered over a sterile filter (0.45 μm). […]
b) Preparation of the inhibitor solution:
2.5 times the desired molarity of the inhibitor per ml of solution are weighed out and dissolved in DMSO (10% of the final volume). The solution is diluted to the final volume with MGTE15 buffer and filtered over a sterile filter (0.45 μm). […]
c) Preparation of the protease solution:
5 μl of the HIV protease solution are diluted with MGTE25 buffer as required.
10 μl portions of the substrate solution are pipetted into test-tubes (16×100) with a screw cap. For the blank experiment, 10 μl of MGTE15 buffer containing 10% of DMSO are pipetted into a test-tube. 10 μl portions of the inhibitor solutions are added to the other test-tubes. The mixtures are incubated at 37° C. for 5-10 minutes and 5 μl of the protease solution are then added to each sample, After reaction at 35° C. for 2 hours, 10 or 20 μl (depending on the sensitivity of the HPLC apparatus) of each sample are then pipetted off, introduced into microvials and diluted with 120 μl of the HPLC mobile phase. […]
e) Conditions for the HPLC analysis:
20% (weight/weight) of aceto-
Column: Merck ®LICHROSORB RP18 (5 μm) 250×4
Column temperature: 42° C.
Detector parameters: 215 nm, 0.08 AUF, 18.2° C.
Analysis time: 11 minutes
Retention time of the substrate: 8.1 minutes
Retention time of the N-terminal tetrapeptide: 3.9 minutes
20 mM morpholinoethanesulfonic acid (MES)
15% (weight/volume) of glycerol
0.1% (volume/volume) of Triton ×100
1 mM phenylmethylsulfonyl fluoride (PMSF)
25% (weight/volume) of glycerol, additionally 1 mM dithiothreitol (DTT) The MES, EDTA, NaCl, DTT and PMSF are weighed into a conical flask and dissolved in a little water and the pH is brought to 6. The corresponding amount of glycerol is weighed into a measuring flask and ®Triton ×100 is pipetted in. The aqueous solution is transferred to the measuring flask and made up to the mark with water.
A 0.1M solution is prepared from orthophosphoric acid (FLUKA extra pure analytical grade). This solution is brought to exactly pH 2.5 with triethylamine (FLUKA extra pure analytical grade). The weight of the solution is determined and the corresponding amount of acetonitrile (fume cupboard) is weighed in. The mixture is mixed thoroughly and degassed with helium 5.0 for about 5 minutes.
Under the conditions chosen here, heptapeptides are separated from the N-terminal tetrapeptide formed during enzymatic cleavage. The percentage content of the tetrapeptide peak in respect of the sum of tetrapeptide+heptapeptide corresponds to the cleaving rate. The following IC50 values indicate the inhibitor concentration at which the cleavage rate is halved.

| Structure (SMILES) | IC50 [nM] |
| --- | --- |
| CC(C)[C@H](NC(=O)[C@H](Cc1ccccc1)NC(=O)[C@H](COC(C)(C)C)NC(=O)OC(C)(C)C)C(=O)N[C@@H](Cc1ccccc1)[C@@H](O)[C@H](O)[C@H](Cc1ccccc1)NC(=O)[C@@H](NC(=O)[C@H](Cc1ccccc1)NC(=O)[C@H](COC(C)(C)C)NC(=O)OC(C)(C)C)C(C)C [Example 15, N,N'-bis-(tert.-Butoxycarbonyl-L-(O-tert.-butylseryl)-L-phenylalanyl-L-valyl)-2S,5S-diamino-1,6-diphenyl-hexane-3R,4R-diol] | 400 |

Same assay, conditions: inhibitor concentration at which the cleavage rate is halved; pH 6, 2 hours; read-out: IC50

| Structure (SMILES) | IC50 [nM] |
| --- | --- |
| CC(C)[C@H](NC(=O)C(CNC(=O)OC(C)(C)C)Cc1ccccc1)C(=O)N[C@@H](Cc1ccccc1)[C@@H](O)[C@H](O)[C@H](Cc1ccccc1)NC(=O)[C@@H](NC(=O)C(CNC(=O)OC(C)(C)C)Cc1ccccc1)C(C)C (single isomer, unassigned) [Example 105, N,N'-bis-<(2-Benzyl-3-tert.-butoxycarbonylamino)-propionyl-L-valyl>-2S,5S-diamino-1,6-diphenylhexane-3R,4R-diol] | 19 |
| CC(C)[C@H](NC(=O)[C@H](Cc1ccccc1)NC(=O)OC(C)(C)C)C(=O)N[C@@H](Cc1ccccc1)[C@@H](O)[C@H](O)[C@H](Cc1ccccc1)NC(=O)[C@@H](NC(=O)[C@H](Cc1ccccc1)NC(=O)OC(C)(C)C)C(C)C [Example 1, N,N,-bis-(tert.-Butoxycarbonyl-L-phenylalanyl-L-valyl)-2S,5S-diamino-1,6-diphenylhexane-3R,4R-diol] | 10 |
| CC(C)[C@H](NC(=O)[C@H](Cc1ccccc1)NC(=O)OC(C)(C)C)C(=O)N[C@@H](Cc1ccccc1)[C@H](O)[C@@H](O)[C@H](Cc1ccccc1)NC(=O)[C@@H](NC(=O)[C@H](Cc1ccccc1)NC(=O)OC(C)(C)C)C(C)C [Example 6, N,N'-bis-(tert.-Butoxycarbonyl-L-phenylalanyl-L-valyl)-2S,5S-diamino-1,6-diphenylhexane-3S,4S-diol] | 8.8 |
| CC(C)[C@H](NC(=O)[C@H](Cc1ccccc1)NC(=O)OC(C)(C)C)C(=O)N[C@@H](Cc1ccccc1)[C@H](O)[C@H](O)[C@H](Cc1ccccc1)NC(=O)[C@@H](NC(=O)[C@H](Cc1ccccc1)NC(=O)OC(C)(C)C)C(C)C [Example 7, N,N'-bis-(tert.-Butoxycarbonyl-L-phenylalanyl-L-valyl)-2S,5S-diamino-1,6-diphenylhexane-3R,4S-diol] | 18 |
| CC(C)[C@H](NC(=O)[C@H](CCCCN)NC(=O)OC(C)(C)C)C(=O)N[C@@H](Cc1ccccc1)[C@@H](O)[C@H](O)[C@H](Cc1ccccc1)NC(=O)[C@@H](NC(=O)[C@H](CCCCN)NC(=O)OC(C)(C)C)C(C)C [Example 11, N,N'-bis-(Nα-<tert.-Butoxycarbonyl>-L-lysyl-L-valyl)-2S,5S-diamino-1,6-diphenyl-hexane-3R,4R-diol dihydrochloride] | 0.8 |
| CC(C)(C)OC(=O)N[C@H](CNC[C@H](Cc1ccccc1)NC(=O)OC(C)(C)C)Cc1ccccc1 [Example 25, Bis-(N-tert.-butoxycarbonyl-2S-amino-3-phenylpropyl)-amine hydrochloride] | 18000 |

More lines, now with the values ahead:

| IC50 [nM] | Structure (SMILES) |
| --- | --- |
| 380 | CC(C)[C@H](NC(=O)C(Cc1ccccc1)Cn1ccnc1)C(=O)N[C@@H](Cc1ccccc1)[C@H](O)[C@@H](O)[C@H](Cc1ccccc1)NC(=O)[C@@H](NC(=O)C(Cc1ccccc1)Cn1ccnc1)C(C)C (single isomer, unassigned) [Example 95, N,N'-bis-<(2-(1-Imidazolylmethyl)-3-phenylpropionyl)-L-valyl->-2S,5S-diamino-1,6-diphenylhexane-3S,4S-diol] |
| 24 | CC(C)C(NC(=O)C(CN)Cc1ccccc1)C(=O)NC(Cc1ccccc1)C(O)C(O)C(Cc1ccccc1)NC(=O)C(NC(=O)C(CN)Cc1ccccc1)C(C)C (single isomer, unassigned) [Example 104, N,N'-bis-<(3-Amino-2-benzyl)-propionyl-L-valyl>-2S,5S-diamino-1,6-diphenylhexane-3R,4R-diol dihydrochloride] |
| 17 | CC(C)[C@H](NC(=O)[C@@H](N)CCCCN)C(=O)N[C@@H](Cc1ccccc1)[C@@H](O)[C@H](O)[C@H](Cc1ccccc1)NC(=O)[C@@H](NC(=O)[C@@H](N)CCCCN)C(C)C [Example 10, N,N'-bis-(L-lysyl-L-valyl)-2S,5S-diamino-1,6-diphenylhexane-3R,4R-diol tetrahydrochloride] |
| 1 | CC(C)[C@H](NC(=O)[C@H](Cc1ccccc1)NC(=O)[C@@H](N)CO)C(=O)N[C@@H](Cc1ccccc1)[C@@H](O)[C@H](O)[C@H](Cc1ccccc1)NC(=O)[C@@H](NC(=O)[C@H](Cc1ccccc1)NC(=O)[C@@H](N)CO)C(C)C [Example 14, N,N'-bis-(L-Seryl-L-phenylalanyl-L-valyl)-2S,5S-diamino-1,6-diphenylhexane-3R,4R-diol dihydrochloride] |
| 0.85 | CC(C)[C@H](NC(=O)[C@@H](N)Cc1ccccc1)C(=O)N[C@@H](Cc1ccccc1)[C@H](O)[C@@H](O)[C@H](Cc1ccccc1)NC(=O)[C@@H](NC(=O)[C@@H](N)Cc1ccccc1)C(C)C [Example 17, N,N'-bis-(L-Phenylalanyl-L-valyl)-2S,5S-diamino-1,6-diphenylhexane-3S,4S-diol dihydrochloride] |
| 0.7 | CC(C)[C@H](NC(=O)[C@H](Cc1ccccc1)NC(=O)[C@@H](N)CO)C(=O)N[C@@H](Cc1ccccc1)[C@H](O)[C@@H](O)[C@H](Cc1ccccc1)NC(=O)[C@@H](NC(=O)[C@H](Cc1ccccc1)NC(=O)[C@@H](N)CO)C(C)C [Example 19, N,N'-bis-(L-Seryl-L-phenylalanyl-L-valyl)-2S,5S-diamino-1,6-diphenylhexane-3S,4S-diol dihydrochloride] |
| 220 | CC(C)[C@H](NC(=O)[C@@H](N)Cc1ccccc1)C(=O)N[C@H](CNC[C@H](Cc1ccccc1)NC(=O)[C@@H](NC(=O)[C@@H](N)Cc1ccccc1)C(C)C)Cc1ccccc1 [Example 21, Bis-(N-(L-phenylalanyl-L-valyl)-2S-amino-3-phenylpropyl)-amine trihydrochloride] |

Same assay, conditions: inhibitor concentration at which the cleavage rate is halved; unit as printed for Ex. 8; read-out: IC50

| Structure (SMILES) | IC50 [nM] |
| --- | --- |
| CC(C)[C@H](NC(=O)OC(C)(C)C)C(=O)N[C@@H](Cc1ccccc1)[C@H](O)[C@@H](O)[C@H](Cc1ccccc1)NC(=O)[C@@H](NC(=O)OC(C)(C)C)C(C)C [Example 8, N,N'-bis-(tert.-Butoxycarbonyl-L-valyl)-2S,5S-diamino-1,6-diphenylhexane-3S,4S-diol] | 30000 |

Same assay, conditions: inhibitor concentration at which the cleavage rate is halved; unit as printed for Ex. 13; read-out: IC50

| Structure (SMILES) | IC50 [nM] |
| --- | --- |
| CC(C)[C@H](NC(=O)[C@H](Cc1cccc2ccccc12)CS(=O)(=O)C(C)(C)C)C(=O)N[C@@H](Cc1ccccc1)[C@@H](O)[C@H](O)[C@H](Cc1ccccc1)NC(=O)[C@@H](NC(=O)[C@H](Cc1cccc2ccccc12)CS(=O)(=O)C(C)(C)C)C(C)C [Example 13, N,N'-bis-<(2S-(1,1-Dimethylethylsulfonylmethyl)-3-(1-naphthyl)-propionyl)-L-valyl>-2S,5S-diamino-1,6-diphenylhexane-3R,4R-diol] | 1.3 |

Same assay, conditions: read-out: IC50

| Structure (SMILES) | IC50 [nM] |
| --- | --- |
| CC(C)(C)OC(=O)N[C@@H](Cc1ccccc1)[C@H](O)[C@H](O)[C@H](Cc1ccccc1)NC(=O)OC(C)(C)C [Example 5, N,N'-bis-(tert.-Butoxycarbonyl)-2S,5S-diamino-1,6-diphenylhexane-3R,4S-diol] | 3600 |
| CC(C)[C@H](NC(=O)[C@@H](N)Cc1ccccc1)C(=O)N[C@@H](Cc1ccccc1)[C@H](O)[C@H](O)[C@H](Cc1ccccc1)NC(=O)[C@@H](NC(=O)[C@@H](N)Cc1ccccc1)C(C)C [Example 18, N,N'-bis-(L-Phenylalanyl-L-valyl)-2S,5S-diamino-1,6-diphenylhexane-3R,4S-diol dihydrochloride] | 1.2 |
